According to patent US20210015793A1, “COMPOUNDS FOR TREATING CNS- AND NEURODEGENERATIVE DISEASES” (ETH ZURICH, priority 2018, published 2021):

Assays:
Tg-TauP301L mice = assay: Hippocampal PHF Tau hyperphosphorylation (AT8) in Tg-TauP301L model of tauopathy; format: in vivo, mouse; conditions: 12 months-old Tg-TauP301L mice treated for 6 months
Source text: For a genetic model of familial AD (FAD), Tg2576 mice (Taconic Biosciences, Rensselaer, N.Y., USA) were used with neuron-specific overexpression of human APPSwe, i.e the Swedish mutation of APP695 isolated from a Swedish family with FAD featuring the double mutation K670N/M671L (Hsiao et al., Science 274, 99-103 (1996)). As a genetic model of tauopathy, the Tg-TauP301L mice (Model 2508, Taconic Biosciences, Rensselaer, N.Y., USA) with neuron-specific expression of the most common FTDP-17 (frontotemporal dementia and parkinsonism linked to chromosome 17) mutation (Lewis et al., Nature Genetics 25, 402-405 (2000)) were used. To enhance neurodegeneration and neuronal loss, the CUMS (chronic unpredictable mild stress) protocol was performed with male 12 months-old Tg2576 mice for 3 months essentially as described (AbdAlla et al., J. Biol. Chem. 284, 6554-6565 (2009); AbdAlla et al., J. Biol. Chem. 284, 6566-6574 (2009)). […]
Similarly, hyperphosphorylated Tau was detected with AT8 antibody on paraffin-embedded brain sections from 12 months-old Tg-TauP301L mice (Model 2508, Taconic Biosciences, Rensselaer, N.Y., USA) without and with treatment with Compound-1 and Compound-4 for 6 months. […]

[1] = Safety and tolerability in healthy human research participants (phase-1 study); format: in vivo
Method: Study design: The study was a three-part phase-1, randomized, placebo-controlled study of Compound-1F. The primary end-point was safety and tolerability. Secondary objectives were plasma pharmacokinetics data (part-1, part-2, part-3) and peripheral blood mononuclear cell MPP1 status (part-3).
The first part (part-1) was a single ascending dose-effect study with three cohorts of 4 healthy research participants each, who received a single dose of 20 mg, 40 mg or 60 mg in subsequent cohorts. Three drug-treated and one placebo-treated subjects were randomized in each cohort (2 males, 2 females; age: 35-65 years). After completion of safety assessment, blood was drawn for analysis of pharmacokinetics data.
In the second part (part-2) of the study, the daily dose was increased every two days until the final dose of 60 mg/day was reached, i.e. the daily dose was 20 mg on day-1 and day-2, 40 mg on day-3 and day-4, and 60 mg on day-5 until day-14. Blood was drawn before study begin for analysis of laboratory parameters and on day-14 for analysis of laboratory parameters and determination of pharmacokinetics data, at the indicated time points after administration of the last dose of 60 mg. All study participants (n=10; 7 males, 3 females; Caucasians; age: 37-66 years; 8 participants received drug, and two received placebo) were healthy and had the possibility to withdraw from the study at any time. All study participants wanted to complete the study.
In the third part (part-3) of the study, a cohort of 8 healthy elderly voluntary research participants (7 males, 1 female; age 60-73 years; all Caucasians) received a daily oral dose of 60 mg of Compound-1F for 28 days (6 participants received drug, 2 placebo). In part-3 of the study, blood was drawn before study begin for analysis of clinical laboratory parameters and MPP1 status, and on day-28 for analysis of laboratory parameters and MPP1 status, and 24 h after the last drug intake for measurement of serum concentration of Compound-1F. All participants of part-3 had the possibility to withdraw from the study at any time but all study participants wanted to complete the study.
The study participants were under the medical supervision of the Rabaa El Adaweya Medical Central Hospital, Cairo, Egypt (Clinical study director: Dr. Raafat Mahmood Fawzy). […] One participant in the placebo group and 1 participant in the drug treatment group (part-2 of the study) reported softer stools beginning on day-3 after drug/placebo intake. This side effect ended after completion of the study, and was most likely due to the intake of mannitol, which was used as an additive for formulation of study drug and placebo. There were no other adverse effects in part-1, part-2 and part-3 of the study.

[2] = healthy humans, 14 days of repeated once daily oral dosing

SMILES | hippocampal content of hyperphosphorylated PHF-Tau (quantitative, [125I]-AT8 binding) (Tg-TauP301L mice) | PHF Tau hyperphosphorylation in hippocampal CA3 area (immunohistology) (Tg-TauP301L mice; 8 mg/kg/d in drinking water) | clinical laboratory parameters and cardiovascular examination data (blood pressure, heart rate) ([1]; all research participants, during and after the study (observation period 4 weeks)) | drug-related adverse events (safety assessment) ([1]; elderly participants, 28 days once daily 60 mg) | clinical laboratory findings ([1]; elderly participants, before and after 28 days of once daily 60 mg) | percentage of neutrophils and lymphocytes [1, 2] | total number of white blood cells [1, 2] | hematologic parameters (Hb, HCT, MCV, MCHC, RBCs) before vs after treatment ([1]; healthy humans, once daily 60 mg, 14 days of study) | treatment related adverse effects (safety assessment) ([1]; healthy humans, oral Compound-1F, single ascending dose 20-60 mg) | kidney (serum urea, creatinine) and liver (AST, ALT) function parameters ([1]; healthy humans, repeated once daily 60 mg/d) | participants in the drug treatment group reporting softer stools ([1]; part-2 of the study, beginning on day-3, attributed to mannitol) [participant]
O=C(C1=C(O)C(c2ccccc2)N(c2ccc3c(c2)OCO3)C1=O)C1CC1 (centres unmarked) [Compound-1, 1-(1,3-benzodioxol-5-yl)-4-(cyclopropane-carbonyl)-3-hydroxy-2-phenyl-2H-pyrrol-5-one] | significantly decreased hippocampal content of hyperphosphorylated PHF-Tau | largely absent |  |  |  |  |  |  |  |  | 
O=C(C1=C(O)C(c2ccc(F)cc2)N(c2ccc3c(c2)OCO3)C1=O)C1CC1 (centres unmarked) [Compound-1F, 1-(1,3-Benzodioxol-5-yl)-4-(cyclopropanecarbonyl)-2-(4-fluorophenyl)-3-hydroxy-2H-pyrrol-5-one] |  |  | within the normal range | no drug-related adverse events | within the normal range | within the normal range | not altered | not significantly different | no treatment related adverse effects | within the normal range | 1
